# Measurements taken from patent US8871801B2, “Method of treating acquired perforating dermatosis with cantharidin” (priority 2011, dated 2014).
# Legend:
# [1] = tested on: skin; settings: general statement in the description; cited from earlier work
# [2] = tested on: acquired perforating dermatosis lesions; test: Topical cantharidin treatment of a patient with acquired perforating dermatosis (case example); assay type: in vivo, human
# From the text: A person presented a six-month history of pruritic, hyperpigmented papules with central, hyperkeratotic plugs of bilateral lower extremities (FIG. 1). The trunk, head, upper extremities, volar surfaces and mucous membranes were spared. Their past medical history was significant for chronic renal failure treated for the past four years with peritoneal dialysis, a 30-year history of insulin-dependent diabetes mellitus, hypercholesterolemia, hypertension, coronary artery bypass, hypothyroidism, and hyperparathyroidism. There was no family history of similar skin lesions. […] The clinical and histopathologic features supported the diagnosis of an acquired perforating disorder associated with renal disease.
# Over the next six months, the patient was treated with intralesional triamcinolone at 10 mg/cc, topical clobetasol, diflorasone, tacrolimus, tazarotene and ammonium lactate. They declined narrowband UVB phototherapy. They were also given oral hydroxine and fexofenadine for their pruritus.
# While a therapy of fexofenadine […] bid, ammonium lactate 12% cream bid, and tazarotene 0.1% cream qd were continued, cantharidin at 0.7 wt % (Canthacur® Pharmascience Inc., Montreal, Canada) was applied to lesions on the right medial calf. Cantharidin was applied for eight hours under occlusion. The vehicle was a solution containing cantharidin 0.7 wt % in acetone, castor oil, collodion, ethoxyethanol, ethyl cellulose, and polyoxyethylene octyl phenol. “bid” means twice per day. “qd” means once per day.
# The film was then occluded using Blenderm® tape, which was kept on for 8 hours before it was washed off. Within 2 days, multiple bullae formed at the sites of cantharidin application (FIG. 2). There was vesicle formation at site of cantharidin application. The patient reported mild pain at these sites for the first 2 days. A week after application, a biopsy of the blistered lesion was taken. […] The blister roofs were then removed by paring them with a 15-blade at the edge of the lesion to find the blister plane and then lifting upwards. […] The lichenified papules and hyperkeratotic cores were no longer present and the leg was smooth.
# Pruritus was resolved in the treated lesions. Cantharidin was subsequently applied under Tegaderm® dressing (3M Corp.) occlusion to multiple lesions of both legs. […] In a five-month follow up, the patient reported no pruritus on the treated lesions. Treated lesions were smooth. […] Cantharidin provides symptomatic relief but may not prevent the formation of new lesions.
structure (smiles),measurement,setting,value
"C[C@@]12C(=O)OC(=O)[C@]1(C)[C@H]1CC[C@@H]2O1 [cantharidin, Cantharidin]",time to blister formation after topical treatment,[1],24 to 48 h
same,biopsy of the blistered lesion (histology),[2]; a week after application of cantharidin 0.7 wt %,focal acantholysis and scattered necrotic keratinocytes
same,pruritus in the treated lesions,[2]; after cantharidin 0.7 wt % treatment and debridement,resolved
same,time to formation of multiple bullae at the sites of cantharidin application,"[2]; cantharidin 0.7 wt % solution, lesions on right medial calf, 8 hours under occlusion (Blenderm tape)",≤ 2 days
same,pain reported by the patient at application sites,"[2]; cantharidin 0.7 wt %, 8 hours under occlusion, first 2 days",mild pain
same,effectiveness of treatment on multiple lesions of both legs,[2]; cantharidin applied under Tegaderm dressing occlusion,effective in most lesions
same,appearance of treated lesions at follow up,[2]; five-month follow up,smooth
same,formation of new lesions at follow up,[2]; five-month follow up,A few new lesions formed
same,pruritus on the treated lesions at follow up,[2]; five-month follow up,no pruritus
